Source: patent US20220089662A1, “PREPRATION METHOD AND APPLICATION OF ANTI-INFLAMMATORY KIDNEY PROTECTING CLAM PEPTIDE” (Chenland Nutritionals Inc., priority 2020, published 2022)

Tests used:
[1] = test system: spontaneously hypertensive rats (SHR); assay: Protection of renal function in spontaneously hypertensive rats (SCr, SUA, BUN); type: in vivo, rat; details: SHR serum, AC: captopril 10 mg/kg by gavage once a day for 4 weeks
Procedure: (§1) Spontaneously hypertensive rats were purchased from Beijing Weitong Lihua Experimental Animal Technology Co., Ltd.
(§2) Forty male spontaneously hypertensive rats (SHR), aged about 12 weeks and weighing about 270 G, were adaptively fed for one week. […] The rats in the AC group were given captopril 10 mg/kg by gavage, At the same time, the MC group was given the same volume of distilled water. The drug was administered once a day for 4 weeks. SCr, SUA and BUN were measured, and the data were analyzed by SPSS software.

[2] = test system: spontaneously hypertensive rats (SHR); assay: Anti-inflammatory test after administration in spontaneously hypertensive rats (serum IL-8, TNF-α, hs-CRP); type: in vivo, rat
Procedure: Anti-inflammatory test after administration in spontaneously hypertensive rats is as follows.
as §1
as §2, with “at” for “At”, “Serum IL-8, TNF-α” for “SCr, SUA”, “hs-CRP” for “BUN”

[3] = AC: captopril 10 mg/kg by gavage once a day for 4 weeks

## C[C@H](CS)C(=O)N1CCC[C@H]1C(=O)O [captopril]
[1]
  BUN: 10.56 ± 3.17 mmol/L
  SCr: 421.50 ± 101.20 µmol/L
  SUA: 211.60 ± 39.89 mg/L
[2]; [3]
  TNF-α: 87.41 ± 19.19 pg/mL
  hs-CRP: 1.53 ± 0.41 µg/L
[2]; positive drug group (captopril 10 mg/kg), 4 weeks
  serum IL-8 level: 122 ± 12.15 pg/mL
